Earlier results on 3 compounds are cited in patent publication US6653469B1, “Antibiotic purification method” (Murty Pharmaceuticals, Inc., priority 2002, dated 2003).

Each structure is given as a SMILES string.

Series [1] relates to heat shock protein 90 (Hsp90).
Test in series [2]: not given
The source holds these as a separate data set.

In the case of `CO[C@H]1[C@@H](OC)C[C@H](C)[C@@H](OC)C2=CC(=O)C=C(NC(=O)/C(C)=C/C=C\[C@H](OC)[C@@H](OC(N)=O)/C(C)=C/[C@@H]1C)C2=O` [herbimycin A], in series [1], the “binding to Hsp90 and effect on Hsp90 function” value is on record as “bind specifically to Hsp90”.

With `COC1CC(C)C(OC)c2cc(O)cc(c2O)NC(=O)/C(C)=C\C=C/C(C)C(OC(N)=O)/C(C)=C\C(C)C1OC` (stereo not shown) [macbecin II], the “binding to Hsp90 and effect on Hsp90 function” value in series [1] is given as “bind specifically to Hsp90”.

As to `COC1=C2C[C@@H](C)C[C@H](OC)[C@H](O)[C@@H](C)/C=C(\C)[C@H](OC(N)=O)[C@@H](OC)/C=C\C=C(/C)C(=O)NC(=CC1=O)C2=O` [geldanamycin], the “solubility in acetone, benzene, and ethyl acetate” value (acetone, benzene, ethyl acetate) is “less soluble”. For the same compound, the “solubility in alcohols and aliphatic chlorinated solvents such as chloroform” value (alcohols, chloroform) is on record as “soluble”. In addition, under “water”, the solubility in water result is listed as “only slightly soluble”. Further, the “stability to acid, base, or heat” value in series [2] (acid, base, or heat in the presence of oxygen) is given as “decompose easily”. Further, in series [2] (aqueous and nonaqueous solutions), the photolytic stability result is given as “undergoes photolytic degradation”.
